Patent publication US20120149902A1, “PYRROLO[2,3-D]PYRIMIDINE DERIVATIVE” (UBE INDUSTRIES, LTD., priority 2009, published 2012)

Experiments:
[1] = target: T1, purified human recombinant HER2 kinase (Lys676-Val1255, GST fusion) (Homo sapiens, UniProt P04626); assay: HER2 kinase enzyme inhibitory activity (HTRF); assay type: biochemical; details: 200 μM ATP, FLT3 analogous peptide substrate, 60 minutes at room temperature
T1 construct: human recombinant HER2 kinase (Lys676-Val1255, GST fusion); GST
T1 sequence (P04626 676-1255): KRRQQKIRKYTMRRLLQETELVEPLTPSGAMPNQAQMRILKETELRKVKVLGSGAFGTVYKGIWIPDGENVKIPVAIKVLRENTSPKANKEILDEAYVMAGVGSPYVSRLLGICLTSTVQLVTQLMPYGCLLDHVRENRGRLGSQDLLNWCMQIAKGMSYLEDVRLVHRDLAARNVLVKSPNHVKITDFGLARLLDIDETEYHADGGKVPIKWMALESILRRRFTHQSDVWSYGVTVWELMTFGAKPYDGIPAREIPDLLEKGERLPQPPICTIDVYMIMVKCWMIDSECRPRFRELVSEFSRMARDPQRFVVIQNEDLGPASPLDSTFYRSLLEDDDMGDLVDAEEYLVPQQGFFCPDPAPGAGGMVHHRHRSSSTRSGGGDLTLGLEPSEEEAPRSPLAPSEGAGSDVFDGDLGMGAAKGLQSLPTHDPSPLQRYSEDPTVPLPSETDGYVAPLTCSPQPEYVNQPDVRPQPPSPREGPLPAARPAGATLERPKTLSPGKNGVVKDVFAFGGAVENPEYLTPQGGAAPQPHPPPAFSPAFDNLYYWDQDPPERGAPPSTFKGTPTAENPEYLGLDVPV
Method: The HER2 kinase enzyme inhibitory activity of a compound of the present invention was evaluated by using a purified human recombinant HER2 kinase (Lys676-Val1255, GST fusion) and a synthetic peptide as a substrate, and detecting the phosphorylation level of the substrate by the HTRF method (homogeneous time resolved fluorescence method). Specifically, 25 ng/well of activated HER2, 200 μM of ATP, 200 ng/well of FLT3 analogous peptide (biotin label, peptide sequence is AGGSSDNEYFYVDF), and test compound (final concentration 0.01 nM to 30 μM) were mixed in kinase reaction buffer (60 mM HEPES, 5 mM MgCl2, 5 mM MnCl2, 3 mM Na3VO4, 1.25 mM DTT, pH 7.5) to prepare 50 μL/well of total reaction volume, and the mixture was reacted for 60 minutes at room temperature. Then, the phosphorylation reaction was stopped and HTRF reaction was carried out by adding 25 μL/well of PBS solution comprising the following components and reacting the mixture for 12 to 16 hours at 4° C. The following components were dissolved in PBS (pH 7.0) to prepare the PBS solution composition: 60 mM EDTA (final concentration 20 mM), 1.2 M KF (final concentration […]), 1 mg/mL BSA (final concentration 333 μg/mL), 6 μg/mL anti-PY20-Cryptate (Cisbio international, France, final concentration 2 μg/mL), and 15 μg/mL Streptavidin labeled with XL665 (Cisbio international, France, final concentration 5 μg/mL).

[2] = system: HER2 overexpressed gastric cancer cell line NCI-N87; assay: Cytotoxic activity (in vitro), CellTiter-Glo viable cell count; assay type: cell-based; details: Homo sapiens, NCI-N87, 72 h, NCI-N87, cultured for 72 hours
Method: The cytotoxic activity of a compound of the present invention was investigated using a HER2 overexpressed gastric cancer cell line NCI-N87. Specifically, an appropriate amount of cells was seeded into a 96-well plate for cell culture at 50 μL/well, and precultured overnight at 37° C. under 5% —CO2 condition. A solution of a test compound in DMSO with dilution series was diluted with medium, and added to the precultured cells at the volume of 50 μL/well. The mixture was prepared such that the final concentration of DMSO became 0.1%. After the mixture was cultured for 72 hours at 37° C. under 5% —CO2 condition, 100 μL/well of CellTiter-Glo solution (Promega, Madison, Wis.) was added, the luminescence was measured using a luminometer (Wallac ARVO™ SX) 10 minutes later, and the viable cell count was determined.

[3] = system: HER2 overexpressed gastric cancer cell line; assay: In vivo anti-tumor effect, subcutaneous tumor transplant in nude mouse; details: oral, daily except Saturday and Sunday, 2 to 4 weeks, read-out: Tumor growth inhibition ratio (%); for inhibition in vivo at 60 mg/kg: dosage 60 mg/kg; for inhibition in vivo at 30 mg/kg: dosage 30 mg/kg; for inhibition in vivo at 100 mg/kg: dosage 100 mg/kg
Method: The anti-tumor effect in vivo of a compound of the present invention was evaluated using a HER2 overexpressed gastric cancer cell line. Specifically, a tumor fragment with about 5 mm square was transplanted subcutaneously using a transplantation needle, or an appropriate number of tumor cells was suspended in saline (Otsuka Pharmaceutical Co., Ltd.) and transplanted under the skin of the right axillary region of a nude mouse using a glass syringe equipped with a two-stage needle for subcutaneous injection. After the confirmation of the engraftment of the transplanted tumors, the mice were classified into groups depending on the tumor volume. The test compounds: the Example Compounds 1-1, 1-2, 1-5, 1-8, 1-13, 1-14, 1-15, 1-19, 1-20, 1-22, 2-1, 2-3, and 3-2 were each dissolved or suspended in an appropriate medium and orally administered forcedly to a mouse. The period of administration was varied from 2 weeks to 4 weeks depending on tumor, and the administration was carried out daily with drug holidays of Saturday and Sunday. The major axis (mm) and the minor axis (mm) of a tumor were measured sequentially using an electronic digital vernier caliper, and evaluated by the tumor growth inhibition ratio (GI %) on the judgement day (in principle, the next day of the final administration) using the following calculating formula.
A: Average tumor volume on the judgement day of the group to which a compound was administered (*)
B: Average tumor volume on the judgement day of the untreated control group (*)
*: The tumor volume is calculated by ½×[major axis of tumor]×[minor axis of tumor]^2.

SMILES | IC50 [1] | GI50 [2] | also measured
NC1CCN(Cc2c[nH]c3ncnc(Nc4cc(F)c(F)c(F)c4)c23)CC1 [Example 1-7, [5-(4-Aminopiperidin-1-ylmethyl)-7H-pyrrolo[2,3-d]pyrimidin-4-yl](3,4,5-trifluorophenyl)amine] | 10 to 50 nM | < 20 nM | 
NC1CCN(Cc2c[nH]c3ncnc(Nc4ccc5occc5c4)c23)CC1 [Example 1-1, [5-(4-Aminopiperidin-1-ylmethyl)-7H-pyrrolo[2,3-d]pyrimidin-4-yl]benzofuran-5-ylamine] |  | 20 to 50 nM | inhibition in vivo at 60 mg/kg [3]: 84%
NC1CCN(Cc2c[nH]c3ncnc(Nc4cc(F)cc(Br)c4)c23)CC1 [Example 1-11, [5-(4-Aminopiperidin-1-ylmethyl)-7H-pyrrolo[2,3-d]pyrimidin-4-yl](3-bromo-5-fluorophenyl)amine] | 10 to 50 nM | 20 to 50 nM | 
CC1(N)CCN(Cc2c[nH]c3ncnc(Nc4ccc5occc5c4)c23)CC1 [Example 1-15, [5-(4-Amino-4-methylpiperidin-1-ylmethyl)-7H-pyrrolo[2,3-d]pyrimidin-4-yl](benzofuran-5-yl)amine] | 10 to 50 nM | 20 to 50 nM | inhibition in vivo at 60 mg/kg [3]: 90%
NC1CCN(Cc2c[nH]c3ncnc(Nc4cccc(Br)c4)c23)CC1 [Example 1-8, [5-(4-Aminopiperidin-1-ylmethyl)-7H-pyrrolo[2,3-d]pyrimidin-4-yl](3-bromophenyl)amine] | < 10 nM | < 20 nM | inhibition in vivo at 30 mg/kg [3]: 59%
Cc1ccc(Nc2ncnc3[nH]cc(CN4CCC(N)CC4)c23)cc1Br [Example 1-6, [5-(4-Aminopiperidin-1-ylmethyl)-7H-pyrrolo[2,3-d]pyrimidin-4-yl](3-bromo-4-methylphenyl)amine] | < 10 nM | 20 to 50 nM | 
CC1(N)CCN(Cc2c[nH]c3ncnc(Nc4cccc(Br)c4)c23)CC1 [Example 1-12, [5-(4-Amino-4-methylpiperidin-1-ylmethyl)-7H-pyrrolo[2,3-d]pyrimidin-4-yl](3-bromophenyl)amine] | < 10 nM |  | 
NC1CCN(Cc2c[nH]c3ncnc(Nc4ccc5[nH]ncc5c4)c23)CC1 [Example 1-9, [5-(4-Aminopiperidin-1-ylmethyl)-7H-pyrrolo[2,3-d]pyrimidin-4-yl](1H-indazol-5-yl)amine] | 10 to 50 nM | 50 to 500 nM | 
NC1CCN(Cc2c[nH]c3ncnc(Nc4ccc(Cl)c(Cl)c4)c23)CC1 [Example 1-10, [5-(4-Aminopiperidin-1-ylmethyl)-7H-pyrrolo[2,3-d]pyrimidin-4-yl](3,4-dichlorophenyl)amine] | < 10 nM | 20 to 50 nM | 
C#Cc1cccc(Nc2ncnc3[nH]cc(CN4CCC(C)(N)CC4)c23)c1 [Example 1-14, [5-(4-Amino-4-methylpiperidin-1-ylmethyl)-7H-pyrrolo[2,3-d]pyrimidin-4-yl](3-ethynylphenyl)amine] | 10 to 50 nM |  | inhibition in vivo at 10 mg/kg ([3]; dosage 10 mg/kg): 75%
N[C@@H]1CCN(Cc2c[nH]c3ncnc(Nc4cccc(Br)c4)c23)C[C@H]1O (relative stereo) [Example 2-3, trans-4-Amino-1-[4-(3-bromophenylamino)-7H-pyrrolo[2,3-d]pyrimidin-5-ylmethyl]piperidin-3-ol] |  | < 20 nM | inhibition in vivo at 100 mg/kg [3]: 76%
C#Cc1cccc(Nc2ncnc3[nH]cc(CN4CCC(N)CC4)c23)c1 [Example 1-5, [5-(4-Aminopiperidin-1-ylmethyl)-7H-pyrrolo[2,3-d]pyrimidin-4-yl](3-ethynylphenyl)amine] |  |  | inhibition in vivo at 30 mg/kg [3]: 90%
NC1CCN(Cc2c[nH]c3ncnc(Nc4ccc(F)c(Cl)c4)c23)CC1 [Example 1-2, [5-(4-Aminopiperidin-1-ylmethyl)-7H-pyrrolo[2,3-d]pyrimidin-4-yl](3-chloro-4-fluorophenyl)amine] |  | 20 to 50 nM | inhibition in vivo at 30 mg/kg [3]: 75%
N[C@@H]1CCN(Cc2c[nH]c3ncnc(Nc4ccc5occc5c4)c23)C[C@H]1O (relative stereo) [Example 2-2, trans-4-Amino-1-[4-(benzofuran-5-ylamino)-7H-pyrrolo[2,3-d]pyrimidin-5-ylmethyl]piperidin-3-ol] |  | 20 to 50 nM | 
COc1cccc(Nc2ncnc3[nH]cc(CN4CCC(C)(N)CC4)c23)c1 [Example 1-13, [5-(4-Amino-4-methylpiperidin-1-ylmethyl)-7H-pyrrolo[2,3-d]pyrimidin-4-yl](3-methoxyphenyl)amine] | < 10 nM |  | inhibition in vivo at 30 mg/kg [3]: 72%
N[C@@H]1CCN(Cc2c[nH]c3ncnc(Nc4ccc(F)c(Cl)c4)c23)C[C@H]1O (relative stereo) [Example 2-1, trans-4-Amino-1-[4-(3-chloro-4-fluorophenylamino)-7H-pyrrolo[2,3-d]pyrimidin-5-ylmethyl]piperidin-3-ol] |  | 20 to 50 nM | inhibition in vivo at 100 mg/kg [3]: 52%

Second part, led by results:

IC50 [1] | SMILES | GI50 [2] | also measured
< 10 nM | C#CCNC1CCN(Cc2c[nH]c3ncnc(Nc4cccc(C#C)c4)c23)CC1 [Example 3-2, (3-Ethynylphenyl) [5-(4-prop-2-ynylaminopiperidin-1-ylmethyl)-7H-pyrrolo[2,3-d]pyrimidin-4-yl]amine] | < 20 nM | inhibition in vivo at 60 mg/kg [3]: 91%
≥ 100 nM | CC1CN(Cc2c[nH]c3ncnc(Nc4ccc(Cl)cc4)c23)CCC1N (single isomer, unassigned; enantiomer 2) [Example 1-23, trans-[5-(4-Amino-3-methylpiperidin-1-ylmethyl)-7H-pyrrolo[2,3-d]pyrimidin-4-yl](4-chlorophenyl)amine [Enantiomer 2]] |  | 
50 to 100 nM | CC1CN(Cc2c[nH]c3ncnc(Nc4ccc(Cl)cc4)c23)CCC1N (single isomer, unassigned; enantiomer 1) [Example 1-22, trans-[5-(4-Amino-3-methylpiperidin-1-ylmethyl)-7H-pyrrolo[2,3-d]pyrimidin-4-yl](4-chlorophenyl)amine [Enantiomer 1]] |  | inhibition in vivo at 60 mg/kg [3]: 88%
50 to 100 nM | COCC1(N)CCN(Cc2c[nH]c3ncnc(Nc4ccc5occc5c4)c23)CC1 [Example 1-17, [5-(4-Amino-4-methoxymethylpiperidin-1-ylmethyl)-7H-pyrrolo[2,3-d]pyrimidin-4-yl](benzofuran-5-yl)amine] | 20 to 50 nM | 
< 10 nM | COCC1(N)CCN(Cc2c[nH]c3ncnc(Nc4cccc(Br)c4)c23)CC1 [Example 1-16, [5-(4-Amino-4-methoxymethylpiperidin-1-ylmethyl)-7H-pyrrolo[2,3-d]pyrimidin-4-yl](3-bromophenyl)amine] | < 20 nM | 
50 to 100 nM | C[C@@H]1CN(Cc2c[nH]c3ncnc(Nc4ccc(Cl)cc4)c23)CC[C@H]1N (relative stereo) [Example 1-21, trans-[5-(4-Amino-3-methylpiperidin-1-ylmethyl)-7H-pyrrolo[2,3-d]pyrimidin-4-yl](4-chlorophenyl)amine] | 20 to 50 nM | 
< 10 nM | CNC1CCN(Cc2c[nH]c3ncnc(Nc4cccc(Br)c4)c23)CC1 [Example 1-18] | < 20 nM | 
< 10 nM | C#Cc1cccc(Nc2ncnc3[nH]cc(CN4CCC(NC)CC4)c23)c1 [Example 3-1, (3-Ethynylphenyl)[5-(4-methylaminopiperidin-1-ylmethyl)-7H-pyrrolo[2,3-d]pyrimidin-4-yl]amine] | < 20 nM | 
